Test results taken from patent publication US8101740B2, “Positron emission tomography probes for imaging immune activation and selected cancers” (The Regents of the University of California, priority 2007, dated 2012).

Legend:
[1] = test system: L1210 wild type or 10K subcutaneous tumors; test: PET of subcutaneous L1210 wild type and 10K tumors; format: in vivo, SCID mice; settings: 4 days after injection
Experimental: To investigate whether [^18F]D-FAC PET can distinguish gemcitabine-sensitive cancer cells from the resistant cancer cells in vivo, mice were injected with L1210 wild type or 10K cells to establish subcutaneous tumors; mice were scanned with [^18F]FDG PET to confirm that implanted cells were viable and growing in vivo and [^18F]D-FAC PET scans were carried out to compare D-FAC accumulation in gemcitabine sensitive versus resistant cells. […] The mice were injected 4 days prior to imaging.
Mice were challenged with the MoMSV onco-retrovirus.

murine B16 cells = test: microPET/CT of implanted B16 melanoma; format: in vivo, C57BL/6 mice; settings: imaged 7 days after 1×10^5 cells subcutaneously
Experimental: In addition to immune diseases, [^18F]D-FAC may also be used to measure dysregulated nucleoside metabolism in cancer. To this end, we examined the utility of [^18F]D-FAC microPET in animal models representative of leukemia or lymphoma, melanoma, and glioma tumors (FIG. 12, where the images are 1 mm coronal sections from [^18F]D-FAC microPET/CT scans 1 hr after probe injection). In FIG. 12A, SCID mice were injected intravenously with Ba/F3 cells expressing p210 BCR-ABL and go on to develop aggressive disease with massive splenic infiltration that typically results in death within ˜15 days (mice shown were imaged on day 12). In FIG. 12B, the NOD SCID mice were transplanted with wild type total bone marrow cells infected with MSCV-GFP-IRES-P185 BCR-ABL retroviral stocks and the leukemic mice were imaged 28 days following transplantation. In FIG. 12C, C57BL/6 was injected subcutaneously with 1×10^5 B16 melanoma cells and imaged 7 days later. In FIG. 12D, SCID mice were injected subcutaneously with 1×10^6 U87 glioma cells and imaged 10 days later. […] [^18F]D-FAC PET also detected implanted murine B16 cells (representative of malignant melanoma) and human U87 cells (representative of glioma tumors). […]

MoMSV-induced sarcomas = test: microPET/CT in oncoretrovirus (MoMSV) sarcoma model of anti-tumor immunity
Experimental: All the mice used in these studies were bred and maintained according to the guidelines of the Department of Laboratory Animal Medicine (DLAM) at the University of California, Los Angeles. For the oncoretrovirus-induced sarcoma model, C57/BL6 mice were challenged intramuscularly in the right triceps with the Moloney murine sarcoma and leukemia virus complex (MoMSV) in a volume of 100 uL of PBS as described previously^6. B6-MRL-Fas^1pr/J mice used for systemic autoimmunity studies were purchased from the Jackson Laboratory (stock number 000482). To monitor the immunosuppressive treatment, these mice were given intraperitoneal injections of dexamethasone (DEX, 10 mg/kg) at 24 hr intervals and were scanned by microPET/CT 24 hr after the last injection. Animals were anesthetized with 2% isoflurane, injected intravenously with 200 microCi [^18F]D-FAC and then scanned with microPET/CT; mice were sacrificed immediately after imaging. Organs were rapidly excised, weighed, and the radioactivity was measured in a well counter. After decay correction, results were expressed as percent of the injected dose of activity per gram of tissue (% ID/g). Other mice were anesthetized with 2% isoflurane and injected intravenously with 1 mCi [^18F]D-FAC. After 1 hr, mice were euthanized, embedded in 3% carboxymethyl cellulose (CMC, Sigma), and frozen in 100% ethanol with dry ice for 45 min. The 50 micron sections were cut using a whole body cryostat, (PMV, Stockholm, Sweden); samples were exposed overnight on BAS-TR2025 plates (Fujifilm Life Science, Stamford, Conn.). Imaging plates were read using a Fujibas-5000 phosphorimager (16 bit, 25 micron resolution; Fujifilm Life Science).
In this model, antigen-specific T cells primed by immunodominant epitopes encoded by viral gag and env genes rapidly expand in spleen and tumor draining lymph nodes (DLNs) and then traffic to the tumor lesion which is rejected over a period of 2-5 weeks^17,18. In fact, the kinetics of T cell responses against MoMSV-induced sarcomas have been studied extensively using conventional ex vivo approaches and our group has used PET reporter gene imaging to visualize tumor rejection in this model^17. To analyze whether the [^18F]D-FAC microPET/CT imaging can detect sites of localized immune activation, mice were scanned before and after the virus challenge.
To determine whether [^18F]D-FAC can provide unique information regarding localized immune activation via the afore-mentioned model, the mice imaged by [^18F]D-FAC were also scanned on consecutive days using [^18F]FDG and [^18F]FLT.

[2] = probe accumulation in necropsy tissue of mouse strains incl. BDC-2.5 (type 1 diabetes model); format: in vivo, BDC-2.5 mice; settings: necropsy tissue samples
From the text: Elevated retention of the [^18F]D-FAC probe in joints and the intestine over physiologic uptake values may reflect the presence of an active inflammatory processes that is characteristic of rheumatoid arthritis and inflammatory bowel disease, respectively. [^18F]D-FAC microPET can also be used to detect overt autoreactive immune activation in a BDC-2.5 mouse model that is prone to type 1 diabetes (FIG. 8). In FIG. 8A, the 1 mm coronal sections illustrate the pattern of [^18F]D-FAC probe accumulation in BDC-2.5 mice. (Abbreviations: CV, cervical LNs; AX, axillary LNs; BR, brachial LNs; IN, inguinal LNs; THY, Thymus; GI, Gastrointestinal tract; H, heart.) In FIG. 8B, [^18F]D-FAC accumulation is measured in necropsy tissue samples from BL/6, BALB/c, NOD LTJ, and BDC-2.5 mice.
FIG. 8 presents the results of microPET/CT imaging performed on BDC-2.5 T cell receptor transgenic mice injected with the [^18F]D-FAC probe. The BDC-2.5 strain is a well-established animal model for type I (autoimmunity-based) diabetes. In FIG. 8A, the 1 mm coronal sections illustrate the pattern of the [^18F]D-FAC probe accumulation in BDC-2.5 mice. (Abbreviations: CV, cervical LNs; AX, axillary LNs; BR, brachial LNs; IN, inguinal LNs; THY, Thymus; GI, Gastrointestinal tract; H, heart.) In FIG. 8B, [^18F]D-FAC accumulation is measured in necropsy tissue samples from BL/6, BALB/c, NOD Ltj and BDC-2.5 mice. […]

For `Nc1ccn([C@@H]2O[C@H](CO)[C@@H](O)[C@@H]2[18F])c(=O)n1` [[^18F]D-FAC, 1-(2′-deoxy-2′-[^18F]fluoro-β-D-arabinofuranosyl)cytosine], the “retention/visualization in dCK deficient, gemcitabine resistant tumors” value ([1]; L1210-10K) was “did not accumulate”, the “retention/visualization in dCK positive, gemcitabine sensitive tumors” value ([1]; L1210 WT) was “clearly detectable” and the “detection of implanted tumor cells by PET” value (murine B16 cells) was “detected”. The “accumulation in the spleen and tumor DLNs relative to baseline scans” value (MoMSV-induced sarcomas; day 15, peak of anti-tumor immune response) was “significantly increased”, the “accumulation in the tumor” value (MoMSV-induced sarcomas; tumor) was 6.7±0.3 % ID/g and the “accumulation in the tumor DLNs” value (MoMSV-induced sarcomas; tumor draining lymph nodes) was 13±2.7 % ID/g. The “accumulation in tumor over background (contralateral muscle tissue)” value (MoMSV-induced sarcomas; tumor lesions) was 1.9±0.3 % ID/g tumor over background and the “accumulation in spleen and lymph nodes among BL/6, BALB/c, NOD Ltj and BDC-2.5 mice” value [2] was “highest levels”.
